Legend:
[1] = target: Protein-arginine deiminase type-2 (Homo sapiens, UniProt Q9Y2J8); assay: Inhibition of PAD2 (unknown origin) using Nalpha-benzoyl-L-arginine ethyl ester as substrate preincubated for 60 mins followed by substrate addition and measured after 90 mins by colorimetric analysis
[2] = target: Protein-arginine deiminase type-4 (Homo sapiens, UniProt Q9UM07); assay: Inhibition of PAD4 (unknown origin) using Nalpha-benzoyl-L-arginine ethyl ester as substrate preincubated for 60 mins followed by substrate addition and measured after 90 mins by colorimetric analysis
[3] = test system: 4T1; assay: Antiproliferative activity against mouse 4T1 cells assessed as inhibition of cell growth incubated for 48 hrs by MTT assay; type: functional, cell-based; settings: 4T1, 48 h
[4] = test system: MDA-MB-468; assay: Antiproliferative activity against human MDA-MB-468 cells assessed as inhibition of cell growth incubated for 48 hrs by MTT assay; type: functional, cell-based; settings: MDA-MB-468, 48 h
[5] = Cytotoxicity against human MCF-10A cells assessed as inhibition of cell growth incubated for 48 hrs by MTT assay; type: toxicity, cell-based

Chain of Protein-arginine deiminase type-4 (Q9UM07 whole entry): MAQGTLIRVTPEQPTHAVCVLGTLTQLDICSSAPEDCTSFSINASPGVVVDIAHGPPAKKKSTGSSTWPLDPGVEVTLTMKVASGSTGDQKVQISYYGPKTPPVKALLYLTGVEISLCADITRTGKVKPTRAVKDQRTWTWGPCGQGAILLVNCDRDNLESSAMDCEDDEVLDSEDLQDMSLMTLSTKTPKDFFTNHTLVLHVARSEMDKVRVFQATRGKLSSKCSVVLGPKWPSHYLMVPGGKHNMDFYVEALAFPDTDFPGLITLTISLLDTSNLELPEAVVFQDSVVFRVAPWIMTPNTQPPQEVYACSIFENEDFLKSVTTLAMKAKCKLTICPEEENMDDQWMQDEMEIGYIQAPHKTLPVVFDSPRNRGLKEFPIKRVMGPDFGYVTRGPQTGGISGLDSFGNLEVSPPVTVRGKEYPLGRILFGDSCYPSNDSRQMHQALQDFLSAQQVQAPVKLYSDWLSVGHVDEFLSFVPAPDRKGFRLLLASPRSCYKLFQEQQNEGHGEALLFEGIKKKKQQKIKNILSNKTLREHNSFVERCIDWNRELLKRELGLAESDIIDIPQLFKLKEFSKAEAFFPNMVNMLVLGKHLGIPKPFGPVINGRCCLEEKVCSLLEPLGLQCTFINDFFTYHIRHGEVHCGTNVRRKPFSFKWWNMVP
Chain of Protein-arginine deiminase type-2 (Q9Y2J8 whole entry): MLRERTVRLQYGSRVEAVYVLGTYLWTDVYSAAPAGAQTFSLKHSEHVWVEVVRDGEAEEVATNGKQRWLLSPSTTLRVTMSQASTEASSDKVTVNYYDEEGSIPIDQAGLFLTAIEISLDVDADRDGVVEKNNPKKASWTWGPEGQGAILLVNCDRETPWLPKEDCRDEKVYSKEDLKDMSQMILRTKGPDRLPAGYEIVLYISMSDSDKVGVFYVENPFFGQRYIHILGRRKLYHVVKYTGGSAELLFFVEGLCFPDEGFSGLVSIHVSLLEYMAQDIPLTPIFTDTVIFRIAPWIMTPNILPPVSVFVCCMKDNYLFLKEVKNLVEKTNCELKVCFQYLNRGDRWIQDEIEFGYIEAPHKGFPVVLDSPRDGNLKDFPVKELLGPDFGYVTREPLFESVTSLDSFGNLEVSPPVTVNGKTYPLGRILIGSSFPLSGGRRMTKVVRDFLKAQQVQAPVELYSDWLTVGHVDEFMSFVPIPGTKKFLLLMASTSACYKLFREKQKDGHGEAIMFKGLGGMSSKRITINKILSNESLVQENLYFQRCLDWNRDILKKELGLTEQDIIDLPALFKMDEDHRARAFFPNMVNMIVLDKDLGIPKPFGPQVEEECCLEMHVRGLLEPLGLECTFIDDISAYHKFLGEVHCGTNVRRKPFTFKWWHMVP

IC50 [1]	IC50 [2]	IC50 [3]	IC50 [4]	Compound	IC50 at 48 h [5]
1.51 µM	1.89 µM	13.9 µM	5.87 µM	COc1cccc(OC)c1-c1nc(C(=O)N[C@@H](CCCNC(=N)CCl)C(=O)NCc2ccccc2)cc2c1[nH]c1ccccc12	14.7 µM
1.14 µM	1.18 µM	11.5 µM	5.2 µM	CC(C)c1nc(C(=O)N[C@@H](CCCNC(=N)CCl)C(=O)NCc2ccccc2)cc2c1[nH]c1ccccc12	4.07 µM
4.59 µM	1.52 µM	11.4 µM	5.93 µM	COc1ccc(-c2nc(C(=O)N[C@@H](CCCNC(=N)CCl)C(=O)NCc3ccccc3)cc3c2[nH]c2ccccc23)cc1OC	11.1 µM
2.32 µM	1.11 µM	5.48 µM	2.89 µM	N=C(CCl)NCCC[C@H](NC(=O)c1cc2c([nH]c3ccccc32)c(C2CCCCC2)n1)C(=O)NCc1ccccc1	2.76 µM
3.77 µM	1.32 µM	7.64 µM	3.99 µM	N=C(CCl)NCCC[C@H](NC(=O)c1cc2c([nH]c3ccccc32)c(-c2cccs2)n1)C(=O)NCc1ccccc1	8.03 µM
1.63 µM	2.15 µM	16 µM	6.18 µM	COc1cc(OC)c(-c2nc(C(=O)N[C@@H](CCCNC(=N)CCl)C(=O)NCc3ccccc3)cc3c2[nH]c2ccccc23)c(OC)c1	16.9 µM
2.95 µM	1.02 µM	11 µM	3.97 µM	N=C(CCl)NCCC[C@H](NC(=O)c1cc2c([nH]c3ccccc32)c(-c2ccc(F)cc2)n1)C(=O)NCc1ccccc1	7.07 µM
2.28 µM	2.64 µM	46.2 µM	69.5 µM	N=C(CCl)NCCC[C@H](NC(=O)c1ccc2nccnc2c1)C(=O)NCc1ccccc1	54 µM
11.6 µM	6.46 µM	74 µM	> 100 µM	N=C(CCl)NCCC[C@H](NC(=O)[C@@H]1Cc2ccccc2CN1)C(=O)NCc1ccccc1	> 100 µM
3.04 µM	1.7 µM	7.48 µM	4.2 µM	COc1ccc(-c2nc(C(=O)N[C@@H](CCCNC(=N)CCl)C(=O)NCc3ccccc3)cc3c2[nH]c2ccccc23)cc1	6.27 µM
> 10 µM	6.89 µM	4.28 µM	2.95 µM	CC(C)c1ccc(-c2nc(C(=O)N[C@@H](CCCNC(=N)CCl)C(=O)NCc3ccccc3)cc3c2[nH]c2ccccc23)cc1	3.52 µM
2.1 µM	1.02 µM	85.5 µM	92 µM	N=C(CCl)NCCC[C@H](NC(=O)c1c[nH]c2ccc(F)cc12)C(=O)NCc1ccccc1	72.7 µM
5.4 µM	2.92 µM	72.1 µM	29.2 µM	N=C(CCl)NCCC[C@H](NC(=O)c1nc2ccccc2[nH]1)C(=O)NCc1ccccc1	29.7 µM
4.65 µM	3.43 µM	45.2 µM	85.3 µM	N=C(CCl)NCCC[C@H](NC(=O)c1cc2c([nH]c3ccccc32)c(-c2ccncc2)n1)C(=O)NCc1ccccc1	83.8 µM
1.43 µM	0.8 µM	41.4 µM	61.3 µM	N=C(CCl)NCCC[C@H](NC(=O)c1ccc2[nH]ccc2c1)C(=O)NCc1ccccc1	63.6 µM
> 10 µM	24.1 µM	1.48 µM	4.26 µM	N=C(CCl)NCCC[C@H](NC(=O)c1cc2c([nH]c3ccccc32)c(-c2cc3ccccc3cn2)n1)C(=O)NCc1ccccc1	4.02 µM
1.93 µM	2.3 µM	> 100 µM	> 100 µM	N=C(CCl)NCCC[C@H](NC(=O)c1ccc2c(c1)NCCN2)C(=O)NCc1ccccc1	> 100 µM

The remaining lines, values behind:

Compound	IC50 [1]	IC50 [2]	IC50 [3]	IC50 [4]	IC50 at 48 h [5]
N=C(CCl)NCCC[C@H](NC(=O)c1cc2c([nH]c3ccccc32)c(-c2cccc([N+](=O)[O-])c2)n1)C(=O)NCc1ccccc1	> 10 µM	2.03 µM	> 100 µM	13.8 µM	7.22 µM
N=C(CCl)NCCC[C@H](NC(=O)c1cc2c([nH]c3ccccc32)c(-c2ccc(O)cc2)n1)C(=O)NCc1ccccc1	2.26 µM	1.08 µM	22.9 µM	30.5 µM	51.8 µM
N=C(CCl)NCCC[C@H](NC(=O)c1cc2c([nH]c3ccccc32)c(-c2ccc(Cl)cc2)n1)C(=O)NCc1ccccc1	4.05 µM	1.13 µM	9.39 µM	4.05 µM	6.35 µM
CC(C)Cc1nc(C(=O)N[C@@H](CCCNC(=N)CCl)C(=O)NCc2ccccc2)cc2c1[nH]c1ccccc12	1.03 µM	0.71 µM	10.1 µM	4.42 µM	5.16 µM
CCCCCc1nc(C(=O)N[C@@H](CCCNC(=N)CCl)C(=O)NCc2ccccc2)cc2c1[nH]c1ccccc12	3.64 µM	1.75 µM	8.07 µM	7.45 µM	8.01 µM
N=C(CCl)NCCC[C@H](NC(=O)c1cc2c([nH]c3ccccc32)c(C2CC2)n1)C(=O)NCc1ccccc1	1.27 µM	0.62 µM	12.2 µM	4.88 µM	4.37 µM
Cn1c(-c2nc(C(=O)N[C@@H](CCCNC(=N)CCl)C(=O)NCc3ccccc3)cc3c2[nH]c2ccccc23)nc2ccccc21	> 10 µM	> 10 µM	3.77 µM	4.82 µM	5.3 µM
N=C(CCl)NCCC[C@H](NC(=O)c1cc2c([nH]c3ccccc32)c(-c2nccc3ccccc23)n1)C(=O)NCc1ccccc1	> 10 µM	14 µM	1.3 µM	3.66 µM	3.03 µM
CCCCCCCCCc1nc(C(=O)N[C@@H](CCCNC(=N)CCl)C(=O)NCc2ccccc2)cc2c1[nH]c1ccccc12	16.8 µM	14 µM	12.2 µM	7.2 µM	14.3 µM
N=C(CCl)NCCC[C@H](NC(=O)c1ccc2nc[nH]c2c1)C(=O)NCc1ccccc1	2.08 µM	1.15 µM	> 100 µM	> 100 µM	> 100 µM
CC(C)(C)c1nc(C(=O)N[C@@H](CCCNC(=N)CCl)C(=O)NCc2ccccc2)cc2c1[nH]c1ccccc12	4.32 µM	1.2 µM	7.51 µM	4.31 µM	3.08 µM
N=C(CCl)NCCC[C@H](NC(=O)c1cc2c(cn1)[nH]c1ccccc12)C(=O)NCc1ccccc1	2.73 µM	1.76 µM	23.5 µM	14.3 µM	29.4 µM
N#Cc1ccc(-c2nc(C(=O)N[C@@H](CCCNC(=N)CCl)C(=O)NCc3ccccc3)cc3c2[nH]c2ccccc23)cc1	3 µM	1.61 µM	18.3 µM	4.36 µM	11.1 µM
COC(Cc1nc(C(=O)N[C@@H](CCCNC(=N)CCl)C(=O)NCc2ccccc2)cc2c1[nH]c1ccccc12)OC	1 µM	0.96 µM	19.8 µM	7.99 µM	11 µM
CCC(CC)c1nc(C(=O)N[C@@H](CCCNC(=N)CCl)C(=O)NCc2ccccc2)cc2c1[nH]c1ccccc12	1.36 µM	1.1 µM	5.66 µM	3.72 µM	3.82 µM
Cc1nc(C(=O)N[C@@H](CCCNC(=N)CCl)C(=O)NCc2ccccc2)cc2c1[nH]c1ccccc12	0.83 µM	0.76 µM	18.9 µM	6.73 µM	18.2 µM
N=C(CCl)NCCC[C@H](NC(=O)c1cc2c([nH]c3ccccc32)c(-c2nc3ccccc3[nH]2)n1)C(=O)NCc1ccccc1	> 10 µM	9.3 µM	1.44 µM	3.18 µM	3 µM
N=C(CCl)NCCC[C@H](NC(=O)c1cc2c([nH]c3ccccc32)c(-c2ccc3ccccc3n2)n1)C(=O)NCc1ccccc1	> 10 µM	13.2 µM	0.88 µM	3.05 µM	2.77 µM
N=C(CCl)NCCC[C@H](NC(=O)c1cc2c([nH]c3ccccc32)c(-c2ccc3ccccc3c2)n1)C(=O)NCc1ccccc1	> 10 µM	3.24 µM	5.8 µM	4.23 µM	9.73 µM
N=C(CCl)NCCC[C@H](NC(=O)c1cc2c([nH]c3ccccc32)c(-c2ncc[nH]2)n1)C(=O)NCc1ccccc1	10.8 µM	3.12 µM	6.67 µM	6.94 µM	12.4 µM
N=C(CCl)NCCC[C@H](NC(=O)c1c[nH]c2ccccc12)C(=O)NCc1ccccc1	0.35 µM	0.7 µM	99.9 µM	117 µM	120 µM
Cc1ccc(-c2nc(C(=O)N[C@@H](CCCNC(=N)CCl)C(=O)NCc3ccccc3)cc3c2[nH]c2ccccc23)cc1	> 10 µM	10 µM	8.02 µM	6.94 µM	17.5 µM
